Measured values reported in ChEMBL document CHEMBL1201862, “PubChem BioAssay data set” (2004).
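Following 48 hours of exposure in 96-well plates, responses at five concentrations were used to interpolate endpoints linearly. Here, GI50 denotes the concentration required for 50% inhibition of growth.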 Active and inactive are the calls of the source. Rule as the data show it: active = GI50 up to about 1.1 µM and inactive = higher.

Experiments:
Assay in all cases: inhibition of tumour cell growth, NCI panel, 48 h
[1] = system: A549
[2] = system: CCRF-CEM
[3] = system: HCT-116
[4] = system: HOP-62
[5] = system: HT-29
[6] = system: IGROV-1
[7] = system: MOLT-4
[8] = system: NCI-H23
[9] = system: NCI-H460
[10] = system: OVCAR-8
[11] = system: RPMI-8226
[12] = system: SF-295
[13] = system: SF-539
[14] = system: SK-MEL-2
[15] = system: A498
[16] = system: HCT-15
[17] = system: LOX IMVI
[18] = system: Malme-3M
[19] = system: NCI-H522
[20] = system: U-251

| Compound | GI50 [1] | GI50 [2] | GI50 [3] | GI50 [4] | GI50 [5] | GI50 [6] | GI50 [7] | GI50 [8] | GI50 [9] | GI50 [10] | GI50 [11] | GI50 [12] | GI50 [13] | GI50 [14] | GI50 [15] | GI50 [16] | GI50 [17] | GI50 [18] | GI50 [19] | GI50 [20] |
| --- | --- | --- | --- | --- | --- | --- | --- | --- | --- | --- | --- | --- | --- | --- | --- | --- | --- | --- | --- | --- |
| COC(=O)C1=C(C)N2CCCOC2(C)C(C(=O)OC)C1c1cccc(Cl)c1 (configuration not stated) | > 100 µM (inactive) | 27.7 µM (inactive) | 25 µM (inactive) | 20.7 µM (inactive) | 22.2 µM (inactive) | 25.7 µM (inactive) | 16.7 µM (inactive) | 31.8 µM (inactive) | 20.5 µM (inactive) | 24.9 µM (inactive) | 14.3 µM (inactive) | 21.7 µM (inactive) | 27.8 µM (inactive) | 18.1 µM (inactive) |  |  |  |  |  |  |
| CCCCC#CS(=O)(=O)C(F)(F)F | > 78.9 µM (inactive) | 48.6 µM (inactive) | 36 µM (inactive) | > 61.5 µM (inactive) | 22.4 µM (inactive) | > 100 µM (inactive) | 33.1 µM (inactive) | 58.6 µM (inactive) | > 92.5 µM (inactive) | 97.1 µM (inactive) | 47.4 µM (inactive) | 20.3 µM (inactive) | > 100 µM (inactive) | > 36.8 µM (inactive) | 44.9 µM (inactive) | 90.4 µM | 60.7 µM (inactive) | > 100 µM (inactive) | 36.1 µM (inactive) | 76.6 µM (inactive) |
| CO[C@@]12[C@H](COC(N)=O)C3=C(C(=O)C(C)=C(N)C3=O)N1C[C@@H]1N[C@@H]12 [MITOMYCIN] |  | 0.229 µM (active) | 0.701 µM (active) |  | 0.759 µM (active) | 2.9 µM (inactive) | 0.23 µM (active) |  |  | 1.11 µM (active) | 2.4 µM (inactive) |  |  | 1.65 µM (inactive) | 0.714 µM (active) | 1.29 µM |  | 0.796 µM (active) | 0.667 µM (active) |  |
| COc1ccc2[nH]cc(/C=C(/C)c3ccncc3)c2c1 | 8.36 µM (inactive) | 3.13 µM (inactive) | 4.15 µM (inactive) | 7.64 µM (inactive) | 3.25 µM (inactive) | 13.2 µM (inactive) | 3.62 µM (inactive) | 2.59 µM (inactive) | 3.57 µM (inactive) | 16 µM (inactive) | 5.89 µM (inactive) | 6.35 µM (inactive) | 8.36 µM (inactive) | 5.38 µM (inactive) | 5.07 µM (inactive) | 1.19 µM | 6.28 µM (inactive) |  | 2.63 µM (inactive) | 5.3 µM (inactive) |
| O=C1/C(=C/c2ccc(Cl)cc2)N=C(c2ccccc2)N1/N=C/c1ccccc1O | 19.2 µM (inactive) | 2.11 µM (inactive) | 2.44 µM (inactive) | 1.87 µM (inactive) | 21.1 µM (inactive) | 8.26 µM (inactive) | 12.6 µM (inactive) | > 100 µM (inactive) | 18 µM (inactive) | 5.51 µM (inactive) | 6.89 µM (inactive) | 11.9 µM (inactive) | 10.9 µM (inactive) | 17.1 µM (inactive) |  | 30.9 µM | 13.2 µM (inactive) | 1.98 µM (inactive) | 13.4 µM (inactive) | 5.27 µM (inactive) |
| O=S(O)c1cc(Cl)c(O)c(Cl)c1 |  | > 100 µM (inactive) | > 100 µM (inactive) | > 100 µM (inactive) | > 100 µM (inactive) |  | > 100 µM (inactive) | > 100 µM (inactive) | > 100 µM (inactive) |  |  |  | > 100 µM (inactive) | > 100 µM (inactive) | > 100 µM (inactive) |  | > 100 µM (inactive) | > 100 µM (inactive) | > 100 µM (inactive) | > 100 µM (inactive) |
| Nc1ccc(OCC(O)N2C(=O)c3ccccc3C2=O)cc1 (configuration not stated) | > 100 µM (inactive) | > 100 µM (inactive) | > 100 µM (inactive) | > 100 µM (inactive) | > 100 µM (inactive) | > 100 µM (inactive) | > 100 µM (inactive) |  | > 100 µM (inactive) | > 100 µM (inactive) | > 100 µM (inactive) | > 100 µM (inactive) |  |  |  | > 100 µM | > 100 µM (inactive) | > 100 µM (inactive) | > 100 µM (inactive) | > 100 µM (inactive) |
| C#CCCCC(=C)C[C@H](OCc1ccccc1)[C@H]1OC(=O)[C@@H]1C | 56.4 µM (inactive) | > 100 µM (inactive) |  | > 100 µM (inactive) |  |  |  | 36 µM (inactive) | > 100 µM (inactive) | 31.8 µM (inactive) | 11.5 µM (inactive) | 89.7 µM (inactive) | 20.5 µM (inactive) | > 100 µM (inactive) | > 100 µM (inactive) | 79.4 µM |  |  |  | > 100 µM (inactive) |
| COC1/C=C\C=C(/C)C(=O)NC2=CC(=O)C=C(C2=O)C(OC)C(C)CC(OC)C(OC)C(C)/C=C(/C)C1OC(N)=O (configuration not stated) | 16.7 µM (inactive) | 0.278 µM (active) | 1.34 µM (inactive) | 2.92 µM (inactive) | 0.608 µM (active) | 12.7 µM (inactive) | 0.214 µM (active) | 1.7 µM (inactive) | 11.5 µM (inactive) | 1.65 µM (inactive) | 0.807 µM (active) | 20.6 µM (inactive) | 8.09 µM (inactive) | 2.31 µM (inactive) | 15.1 µM (inactive) | 3.38 µM | 3.19 µM (inactive) | 0.189 µM (active) | 0.231 µM (active) | 12.7 µM (inactive) |
